Measurements: patent publication US20090137549A1, “Novel compounds useful for the treatment of degenerative & inflamatory diseases” (priority 2006, published 2009)

biological target: PDE1A (Homo sapiens, UniProt P54750); assay: PDE1A dose response, Cyclic Nucleotide Phosphodiesterase Assay Kit from Biomol (colorimetric); format: biochemical; conditions: purified PDE1A enzyme, 100 μM cAMP
Procedure, shortened: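 Purified PDE1A hydrolysed 100 μM cAMP with 5′-nucleotidase in Tris 20 mM pH 7.4 with calmodulin, Ca2+, Mg2+, 45 min at 37° C. Released phosphate read by malachite-green absorbance at 615 nm. Duplicate 8-point 1/3 dilutions from 20 μM, 1% DMSO; 10 μM vardenafil defined 100% inhibition.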

Row | SMILES | IC50
1 | Cc1nn(C2CCCCC2)c2nc(C3CCCN(C(=O)c4ccccc4F)C3)[nH]c(=O)c12 (stereo not drawn) [Example 92, 1-cyclohexyl-6-(1-(2-fluorobenzoyl)piperidin-3-yl)-3-methyl-1H-pyrazolo[3,4-d]pyrimidin-4(5H)-one] | 0.501 to 1 µM
2 | COc1ccccc1C(=O)N1CC(c2nc3c(c(C)nn3C3CCCCC3)c(=O)[nH]2)C1 [Example 93, 1-cyclohexyl-6-(1-(2-methoxybenzoyl)azetidin-3-yl)-3-methyl-1H-pyrazolo[3,4-d]pyrimidin-4(5H)-one] | 0.501 to 1 µM
3 | O=C(N1CCOCC1)N1CC(c2nc3c(cnn3C3CCCCC3)c(=O)[nH]2)C1 [Example 94, 1-cyclohexyl-6-(1-(morpholine-4-carbonyl)azetidin-3-yl)-1H-pyrazolo[3,4-d]pyrimidin-4(5H)-one] | 0.501 to 1 µM
4 | Cc1nn(C2CCCCC2)c2nc(C3CCCN(C(=O)c4cccn4C)C3)[nH]c(=O)c12 (stereo not drawn) [Example 95, 1-cyclohexyl-3-methyl-6-(1-(1-methyl-1H-pyrrole-2-carbonyl)piperidin-3-yl)-1H-pyrazolo[3,4-d]pyrimidin-4(5H)-one] | 0.501 to 1 µM
5 | Cc1nn(C2CCCCC2)c2nc(C3CCCN(C(=O)c4ccc(C(F)(F)F)cc4)C3)[nH]c(=O)c12 (stereo not drawn) [Example 96, 1-cyclohexyl-3-methyl-6-(1-(4-(trifluoromethyl)benzoyl)piperidin-3-yl)-1H-pyrazolo[3,4-d]pyrimidin-4(5H)-one] | 0.501 to 1 µM
6 | Cc1nn(C2CCCCC2)c2nc(C3CCCN(C(=O)c4ccsc4)C3)[nH]c(=O)c12 (stereo not drawn) [Example 97, 1-cyclohexyl-3-methyl-6-(1-(thiophene-3-carbonyl)piperidin-3-yl)-1H-pyrazolo[3,4-d]pyrimidin-4(5H)-one] | 1 to 1.5 µM
7 | Cc1nn(C2CCCCC2)c2nc(C3CCCN(S(=O)(=O)c4cn(C)cn4)C3)[nH]c(=O)c12 (stereo not drawn) [Example 98, 1-cyclohexyl-3-methyl-6-(1-(1-methyl-1H-imidazol-4-ylsulfonyl)piperidin-3-yl)-1H-pyrazolo[3,4-d]pyrimidin-4(5H)-one] | 1 to 1.5 µM
8 | COc1ccccc1NC(=O)N1CCCC(c2nc3c(c(C)nn3C3CCCCC3)c(=O)[nH]2)C1 (stereo not drawn) [Example 99, 3-(1-cyclohexyl-3-methyl-4-oxo-4,5-dihydro-1H-pyrazolo[3,4-d]pyrimidin-6-yl)-N-(2-methoxyphenyl)piperidine-1-carboxamide] | 1 to 1.5 µM
9 | Cc1nn(C2CCCCC2)c2nc(C3CCCN(S(=O)(=O)c4ccccc4Cl)C3)[nH]c(=O)c12 (stereo not drawn) [Example 100, 6-(1-(2-chlorophenylsulfonyl)piperidin-3-yl)-1-cyclohexyl-3-methyl-1H-pyrazolo[3,4-d]pyrimidin-4(5H)-one] | 1 to 1.5 µM
10 | Cc1nn(C2CCCCC2)c2nc(C3CCCN(C(=O)c4cccs4)C3)[nH]c(=O)c12 (stereo not drawn) [Example 101, 1-cyclohexyl-3-methyl-6-(1-(thiophene-2-carbonyl)piperidin-3-yl)-1H-pyrazolo[3,4-d]pyrimidin-4(5H)-one] | 1 to 1.5 µM
11 | Cc1nn(C2CCC2)c2nc(C3CCCN(C(=O)c4ccc(C#N)cc4)C3)[nH]c(=O)c12 (stereo not drawn) [Example 102, 4-(3-(1-cyclobutyl-3-methyl-4-oxo-4,5-dihydro-1H-pyrazolo[3,4-d]pyrimidin-6-yl)piperidine-1-carbonyl)benzonitrile] | 1 to 1.5 µM
12 | Cc1nn(C2CCCCC2)c2nc(C3CCCN(S(=O)(=O)Cc4ccccc4)C3)[nH]c(=O)c12 (stereo not drawn) [Example 103, 6-(1-(benzylsulfonyl)piperidin-3-yl)-1-cyclohexyl-3-methyl-1H-pyrazolo[3,4-d]pyrimidin-4(5H)-one] | 1 to 1.5 µM
13 | CCCCCS(=O)(=O)N1CC(c2nc3c(cnn3C3CCCCC3)c(=O)[nH]2)C1 [Example 104, 1-cyclohexyl-6-(1-(pentylsulfonyl)azetidin-3-yl)-1H-pyrazolo[3,4-d]pyrimidin-4(5H)-one] | 1 to 1.5 µM
14 | O=c1[nH]c(C2CCCN(S(=O)(=O)c3ccc(OC(F)(F)F)cc3)C2)nc2c1cnn2C1CCCCC1 (stereo not drawn) [Example 105, 1-cyclohexyl-6-(1-(4-(trifluoromethoxy)phenylsulfonyl)piperidin-3-yl)-1H-pyrazolo[3,4-d]pyrimidin-4(5H)-one] | 1 to 1.5 µM
15 | Cc1nn(C2CCCCC2)c2nc(C3CCCN(S(=O)(=O)c4ccccc4)C3)[nH]c(=O)c12 (stereo not drawn) [Example 106, 1-cyclohexyl-3-methyl-6-(1-(phenylsulfonyl)piperidin-3-yl)-1H-pyrazolo[3,4-d]pyrimidin-4(5H)-one] | 1 to 1.5 µM
16 | Cc1nn(C2CCCCC2)c2nc(C3CCCN(S(=O)(=O)c4ccccc4OC(F)(F)F)C3)[nH]c(=O)c12 (stereo not drawn) [Example 107, 1-cyclohexyl-3-methyl-6-(1-(2-(trifluoromethoxy)phenylsulfonyl)piperidin-3-yl)-1H-pyrazolo[3,4-d]pyrimidin-4(5H)-one] | 1 to 1.5 µM
17 | CC(C)N1CC(n2ncc3c(=O)[nH]c(C4CN(C(=O)Nc5ccc(F)cc5)C4)nc32)C1 [Example 108, N-(4-fluorophenyl)-3-(1-(1-isopropylazetidin-3-yl)-4-oxo-4,5-dihydro-1H-pyrazolo[3,4-d]pyrimidin-6-yl)azetidine-1-carboxamide] | 1 to 1.5 µM
18 | Cc1nn(-c2ccccc2)c2nc(C3CCCN(C(=O)c4ccc(C#N)cc4)C3)[nH]c(=O)c12 (stereo not drawn) [Example 109, 4-(3-(3-methyl-4-oxo-1-phenyl-4,5-dihydro-1H-pyrazolo[3,4-d]pyrimidin-6-yl)piperidine-1-carbonyl)benzonitrile] | 1 to 1.5 µM
19 | N#Cc1ccc(C(=O)N2CCCC(c3nc4c(cnn4-c4ccccc4)c(=O)[nH]3)C2)cc1 (stereo not drawn) [Example 110, 4-(3-(4-oxo-1-phenyl-4,5-dihydro-1H-pyrazolo[3,4-d]pyrimidin-6-yl)piperidine-1-carbonyl)benzonitrile] | 1 to 1.5 µM
20 | CCCn1nc(C)c2c(=O)[nH]c(C3CCCN(S(=O)(=O)c4ccc(OC)cc4)C3)nc21 (stereo not drawn) [Example 111, 6-(1-(4-methoxyphenylsulfonyl)piperidin-3-yl)-3-methyl-1-propyl-1H-pyrazolo[3,4-d]pyrimidin-4(5H)-one] | 1 to 1.5 µM
21 | Cc1nn(C2CCCCC2)c2nc(C3CCCN(C(=O)CCc4ccccc4)C3)[nH]c(=O)c12 (stereo not drawn) [Example 112, 1-cyclohexyl-3-methyl-6-(1-(3-phenylpropanoyl)piperidin-3-yl)-1H-pyrazolo[3,4-d]pyrimidin-4(5H)-one] | 1 to 1.5 µM
22 | CC(=O)Nc1ccc(C(=O)N2CCCC(c3nc4c(c(C)nn4C4CCCCC4)c(=O)[nH]3)C2)cc1 (stereo not drawn) [Example 113, N-(4-(3-(1-cyclohexyl-3-methyl-4-oxo-4,5-dihydro-1H-pyrazolo[3,4-d]pyrimidin-6-yl)piperidine-1-carbonyl)phenyl)acetamide] | 1 to 1.5 µM
23 | CCc1nn(C2CCCCC2)c2nc(C3CN(C(=O)Nc4ccccc4OC(F)F)C3)[nH]c(=O)c12 [Example 114, 3-(1-cyclohexyl-3-ethyl-4-oxo-4,5-dihydro-1H-pyrazolo[3,4-d]pyrimidin-6-yl)-N-(2-(difluoromethoxy)phenyl)azetidine-1-carboxamide] | 0.501 to 1 µM
24 | Cc1nn(C2CCCCC2)c2nc(C3CN(C(=O)OCc4ccccc4)C3)[nH]c(=O)c12 [Example 115, Benzyl 3-(1-cyclohexyl-3-methyl-4-oxo-4,5-dihydro-1H-pyrazolo[3,4-d]pyrimidin-6-yl)azetidine-1-carboxylate] | 0.101 to 0.5 µM
